Legend:
Type in all cases: functional
Conditions in all cases: read-out: Activity
MDA-MB-468 = test: Cytotoxicity against human MDA-MB-468 cells assessed as cell viability at 10 uM incubated for 48 hrs by sulforhodamine B assay relative to control
T47D = test: Cytotoxicity against human T47D cells assessed as cell viability at 10 uM incubated for 48 hrs by sulforhodamine B assay relative to control
MDA-MB-231 = test: Cytotoxicity against human MDA-MB-231 cells assessed as cell viability at 10 uM incubated for 48 hrs by sulforhodamine B assay relative to control
MCF7 = test: Cytotoxicity against human MCF7 cells assessed as cell viability at 10 uM incubated for 48 hrs by sulforhodamine B assay relative to control
DU-145 = test: Cytotoxicity against human DU-145 cells assessed as cell viability at 10 uM incubated for 48 hrs by sulforhodamine B assay relative to control
UO-31 = test: Cytotoxicity against human UO-31 cells assessed as cell viability at 10 uM incubated for 48 hrs by sulforhodamine B assay relative to control
SN12C = test: Cytotoxicity against human SN12C cells assessed as cell viability at 10 uM incubated for 48 hrs by sulforhodamine B assay relative to control
CAKI-1 = test: Cytotoxicity against human CAKI-1 cells assessed as cell viability at 10 uM incubated for 48 hrs by sulforhodamine B assay relative to control
ACHN = test: Cytotoxicity against human ACHN cells assessed as cell viability at 10 uM incubated for 48 hrs by sulforhodamine B assay relative to control
SK-OV-3 = test: Cytotoxicity against human SK-OV-3 cells assessed as cell viability at 10 uM incubated for 48 hrs by sulforhodamine B assay relative to control
IGROV-1 = test: Cytotoxicity against human IGROV-1 cells assessed as cell viability at 10 uM incubated for 48 hrs by sulforhodamine B assay relative to control
UACC-62 = test: Cytotoxicity against human UACC-62 cells assessed as cell viability at 10 uM incubated for 48 hrs by sulforhodamine B assay relative to control
UACC-257 = test: Cytotoxicity against human UACC-257 cells assessed as cell viability at 10 uM incubated for 48 hrs by sulforhodamine B assay relative to control
SK-MEL-5 = test: Cytotoxicity against human SK-MEL-5 cells assessed as cell viability at 10 uM incubated for 48 hrs by sulforhodamine B assay relative to control
SK-MEL-28 = test: Cytotoxicity against human SK-MEL-28 cells assessed as cell viability at 10 uM incubated for 48 hrs by sulforhodamine B assay relative to control
SK-MEL-2 = test: Cytotoxicity against human SK-MEL-2 cells assessed as cell viability at 10 uM incubated for 48 hrs by sulforhodamine B assay relative to control
CCRF-CEM = test: Cytotoxicity against human CCRF-CEM cells assessed as cell viability at 10 uM incubated for 48 hrs by sulforhodamine B assay relative to control
K562 = test: Cytotoxicity against human K562 cells assessed as cell viability at 10 uM incubated for 48 hrs by sulforhodamine B assay relative to control
MOLT-4 = test: Cytotoxicity against human MOLT-4 cells assessed as cell viability at 10 uM incubated for 48 hrs by sulforhodamine B assay relative to control
RPMI-8226 = test: Cytotoxicity against human RPMI-8226 cells assessed as cell viability at 10 uM incubated for 48 hrs by sulforhodamine B assay relative to control
SR = test: Cytotoxicity against human SR cells assessed as cell viability at 10 uM incubated for 48 hrs by sulforhodamine B assay relative to control
A549 = test: Cytotoxicity against human A549 cells assessed as cell viability at 10 uM incubated for 48 hrs by sulforhodamine B assay relative to control
EKVX = test: Cytotoxicity against human EKVX cells assessed as cell viability at 10 uM incubated for 48 hrs by sulforhodamine B assay relative to control
HOP-62 = test: Cytotoxicity against human HOP-62 cells assessed as cell viability at 10 uM incubated for 48 hrs by sulforhodamine B assay relative to control
HOP-92 = test: Cytotoxicity against human HOP-92 cells assessed as cell viability at 10 uM incubated for 48 hrs by sulforhodamine B assay relative to control
NCI-H226 = test: Cytotoxicity against human NCI-H226 cells assessed as cell viability at 10 uM incubated for 48 hrs by sulforhodamine B assay relative to control
NCI-H23 = test: Cytotoxicity against human NCI-H23 cells assessed as cell viability at 10 uM incubated for 48 hrs by sulforhodamine B assay relative to control
NCI-H322M = test: Cytotoxicity against human NCI-H322M cells assessed as cell viability at 10 uM incubated for 48 hrs by sulforhodamine B assay relative to control
NCI-H460 = test: Cytotoxicity against human NCI-H460 cells assessed as cell viability at 10 uM incubated for 48 hrs by sulforhodamine B assay relative to control
NCI-H522 = test: Cytotoxicity against human NCI-H522 cells assessed as cell viability at 10 uM incubated for 48 hrs by sulforhodamine B assay relative to control
COLO 205 = test: Cytotoxicity against human COLO 205 cells assessed as cell viability at 10 uM incubated for 48 hrs by sulforhodamine B assay relative to control
HCC 2998 = test: Cytotoxicity against human HCC 2998 cells assessed as cell viability at 10 uM incubated for 48 hrs by sulforhodamine B assay relative to control
HCT-116 = test: Cytotoxicity against human HCT-116 cells assessed as cell viability at 10 uM incubated for 48 hrs by sulforhodamine B assay relative to control
HCT-15 = test: Cytotoxicity against human HCT-15 cells assessed as cell viability at 10 uM incubated for 48 hrs by sulforhodamine B assay relative to control
HCT-29 = test: Cytotoxicity against human […] cells assessed as cell viability at 10 uM incubated for 48 hrs by sulforhodamine B assay relative to control
KM12 = test: Cytotoxicity against human KM12 cells assessed as cell viability at 10 uM incubated for 48 hrs by sulforhodamine B assay relative to control
SW-620 = test: Cytotoxicity against human SW-620 cells assessed as cell viability at 10 uM incubated for 48 hrs by sulforhodamine B assay relative to control
SF-268 = test: Cytotoxicity against human SF-268 cells assessed as cell viability at 10 uM incubated for 48 hrs by sulforhodamine B assay relative to control
SNB-19 = test: Cytotoxicity against human SNB-19 cells assessed as cell viability at 10 uM incubated for 48 hrs by sulforhodamine B assay relative to control
SNB-75 = test: Cytotoxicity against human SNB-75 cells assessed as cell viability at 10 uM incubated for 48 hrs by sulforhodamine B assay relative to control
LOX IMVI = test: Cytotoxicity against human LOX IMVI cells assessed as cell viability at 10 uM incubated for 48 hrs by sulforhodamine B assay relative to control

For O=S(=O)(NCCNc1nccc(-c2c(-c3cccc(F)c3)nc3sccn23)n1)c1ccc(F)cc1, the viability at 10 µM (MDA-MB-468) was 63.1%, the viability at 10 µM (T47D) was 40.4% and the viability at 10 µM (MDA-MB-231) was 76.6%. For the same compound, the viability at 10 µM (MCF7) was 22%, the viability at 10 µM (DU-145) was 52.4% and the viability at 10 µM (UO-31) was 23.2%. The viability at 10 µM (SN12C) was 49.2%, the viability at 10 µM (CAKI-1) was 41.3% and the viability at 10 µM (ACHN) was 35.8%. The viability at 10 µM (SK-OV-3) was 79.9%, the viability at 10 µM (IGROV-1) was 11.3% and the viability at 10 µM (UACC-62) was 44.4%. The viability at 10 µM (UACC-257) was 79.1%, the viability at 10 µM (SK-MEL-5) was 35.4% and the viability at 10 µM (SK-MEL-28) was 81.1%. It also gave a viability at 10 µM (SK-MEL-2) of 67.2%, a viability at 10 µM (CCRF-CEM) of 54.7% and a viability at 10 µM (K562) of 38.8%. For the same compound, the viability at 10 µM (MOLT-4) was 41.1%, the viability at 10 µM (RPMI-8226) was 63.4% and the viability at 10 µM (SR) was 38%. The viability at 10 µM (A549) was 32.1%, the viability at 10 µM (EKVX) was 62.7% and the viability at 10 µM (HOP-62) was 80.1%. The viability at 10 µM (HOP-92) was 84.8%, the viability at 10 µM (NCI-H226) was 45.6% and the viability at 10 µM (NCI-H23) was 79.3%. The viability at 10 µM (NCI-H322M) was 64%, the viability at 10 µM (NCI-H460) was 35% and the viability at 10 µM (NCI-H522) was 67%. The viability at 10 µM (COLO 205) was 39.5%, the viability at 10 µM (HCC 2998) was 80.8% and the viability at 10 µM (HCT-116) was 40%. It also gave a viability at 10 µM (HCT-15) of 32.2%, a viability at 10 µM (HCT-29) of 28.7% and a viability at 10 µM (KM12) of 40.1%. The viability at 10 µM (SW-620) was 63%, the viability at 10 µM (SF-268) was 53.8% and the viability at 10 µM (SNB-19) was 67.4%. The viability at 10 µM (SNB-75) was 67.7% and the viability at 10 µM (LOX IMVI) was 42.8%.
Work on O=S(=O)(NCCCNc1nccc(-c2c(-c3cccc(F)c3)nc3sccn23)n1)c1ccc(F)cc1 yielded a viability at 10 µM (MDA-MB-468) of 77.4%, a viability at 10 µM (T47D) of 18.6% and a viability at 10 µM (MDA-MB-231) of 94.2%. It also gave a viability at 10 µM (MCF7) of 70.1%, a viability at 10 µM (DU-145) of 84.5% and a viability at 10 µM (UO-31) of 38.8%. For the same compound, the viability at 10 µM (SN12C) was 71.5%, the viability at 10 µM (CAKI-1) was 57.8% and the viability at 10 µM (ACHN) was 64.2%. It also gave a viability at 10 µM (SK-OV-3) of 81.6%, a viability at 10 µM (IGROV-1) of 36.9% and a viability at 10 µM (UACC-62) of 35.4%. It also gave a viability at 10 µM (UACC-257) of 112%, a viability at 10 µM (SK-MEL-5) of 47.3% and a viability at 10 µM (SK-MEL-28) of 96.9%. For the same compound, the viability at 10 µM (SK-MEL-2) was 76.6%, the viability at 10 µM (CCRF-CEM) was 53.7% and the viability at 10 µM (K562) was 41.6%. For the same compound, the viability at 10 µM (MOLT-4) was 47.1%, the viability at 10 µM (RPMI-8226) was 51% and the viability at 10 µM (SR) was 95.8%. For the same compound, the viability at 10 µM (A549) was 74%, the viability at 10 µM (EKVX) was 80.4% and the viability at 10 µM (HOP-62) was 101%. For the same compound, the viability at 10 µM (HOP-92) was 102%, the viability at 10 µM (NCI-H226) was 56.2% and the viability at 10 µM (NCI-H23) was 83.7%. For the same compound, the viability at 10 µM (NCI-H322M) was 100%, the viability at 10 µM (NCI-H460) was 87.8% and the viability at 10 µM (NCI-H522) was 54%. The viability at 10 µM (COLO 205) was 43.7%, the viability at 10 µM (HCC 2998) was 116% and the viability at 10 µM (HCT-116) was 59.4%. For the same compound, the viability at 10 µM (HCT-15) was 44.5%, the viability at 10 µM (HCT-29) was 46.2% and the viability at 10 µM (KM12) was 62.7%. The viability at 10 µM (SW-620) was 106%, the viability at 10 µM (SF-268) was 73.9% and the viability at 10 µM (SNB-19) was 95.9%. For the same compound, the viability at 10 µM (SNB-75) was 98.5% and the viability at 10 µM (LOX IMVI) was 56%.

Reference: ChEMBL document CHEMBL4665642, “Anticancer profile of newly synthesized BRAF inhibitors possess 5-(pyrimidin-4-yl)imidazo[2,1-b]thiazole scaffold” (Bioorg Med Chem, 2019)
